Earlier results on one compound are cited in US7776366B2, “Method and nutraceutical composition for mammals” (MD's Choice, Inc., priority 2002, dated 2010).

The conditions of this data set: within 30 minutes, in at least 3 species, via glucose transporter.

For the compound `N[C@H]1C(O)O[C@H](CO)[C@@H](O)[C@@H]1O.O=S(=O)(O)O` (stereo partly shown) [Glucosamine sulphate], the “efficiency of active absorption from the digestive tract” value is “over 90%”.
